Like-named read-outs stand apart in the source and are kept apart here. Bridge positions count the residues as written; N and C are the ends. Square brackets hold non-standard residues; d marks the D form. Peptide text beside a SMILES is read from it. * marks the point of attachment. Trp(6-Me) = Cc1ccc2c(C[C@H](N)C(=O)O)c[nH]c2c1; hArg = N=C(N)NCCCC[C@H](N)C(=O)O; Pentanoyl = CCCCC(=O)*

The results in this text go back to patent US11034725B2, “Compositions and methods for treating cardiovascular disease” (Genentech, Inc., priority 2016, dated 2021).

Assay [1] has as its target T1, PCSK9Δhelix (Homo sapiens, UniProt Q8NBP7).
T1 construct: Human PCSK9 construct M1-Q692 with an engineered TEV site (residue deletion Y166, R167); made in house; host or cells: CHO
Put plainly: PCSK9Δhelix/Ab20 TR-FRET binding assay. As to conditions: for IC50: TR-FRET, read-out: PCSK9Δhelix/Ab20 IC50. Background: In TR-FRET formats the signal depends on donor and acceptor labels being close together.

The target of assay [2] is PCSK9 (Homo sapiens, UniProt Q8NBP7). As to the kind of experiment: PCSK9/EGF(A) TR-FRET binding assay. Particulars: for IC50: TR-FRET, read-out: PCSK9/EGF(A) IC50.
Chain of PCSK9 (Q8NBP7 153-692): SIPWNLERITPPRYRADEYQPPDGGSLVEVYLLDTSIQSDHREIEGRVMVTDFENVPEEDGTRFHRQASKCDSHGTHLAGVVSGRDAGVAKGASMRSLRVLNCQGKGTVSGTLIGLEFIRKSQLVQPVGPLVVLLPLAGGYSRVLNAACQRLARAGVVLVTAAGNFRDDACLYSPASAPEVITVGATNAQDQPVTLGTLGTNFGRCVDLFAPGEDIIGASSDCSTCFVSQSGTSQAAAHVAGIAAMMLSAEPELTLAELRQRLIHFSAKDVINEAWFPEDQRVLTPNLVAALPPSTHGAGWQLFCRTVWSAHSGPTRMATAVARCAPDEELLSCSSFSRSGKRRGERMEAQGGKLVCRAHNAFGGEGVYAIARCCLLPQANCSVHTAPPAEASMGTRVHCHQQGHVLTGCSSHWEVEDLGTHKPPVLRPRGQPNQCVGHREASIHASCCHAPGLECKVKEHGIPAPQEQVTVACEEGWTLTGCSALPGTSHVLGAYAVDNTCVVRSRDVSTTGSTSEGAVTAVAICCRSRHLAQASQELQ
Chain of PCSK9 (Q8NBP7 31-152 partner limits assumed): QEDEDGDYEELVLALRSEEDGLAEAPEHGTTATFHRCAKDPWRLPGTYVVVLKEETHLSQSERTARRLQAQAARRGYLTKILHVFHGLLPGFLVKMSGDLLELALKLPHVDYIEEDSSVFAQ
The test system of assay [3] is His-EGF(A)-Fc. Put plainly: His-EGF(A)-Fc TR-FRET counterscreen.
Where [4] appears, read: Table 8D, disulfide-cyclized extension peptides.
Setting [5] is: TR-FRET counterscreen, Table 8D, * = some inhibition at highest concentrations, not sufficient to fit an IC50.
[6] abbreviates: TR-FRET counterscreen, Table 8E, additional compounds.

T1 sequence (Q8NBP7 with tags, fused parts or gaps limits assumed): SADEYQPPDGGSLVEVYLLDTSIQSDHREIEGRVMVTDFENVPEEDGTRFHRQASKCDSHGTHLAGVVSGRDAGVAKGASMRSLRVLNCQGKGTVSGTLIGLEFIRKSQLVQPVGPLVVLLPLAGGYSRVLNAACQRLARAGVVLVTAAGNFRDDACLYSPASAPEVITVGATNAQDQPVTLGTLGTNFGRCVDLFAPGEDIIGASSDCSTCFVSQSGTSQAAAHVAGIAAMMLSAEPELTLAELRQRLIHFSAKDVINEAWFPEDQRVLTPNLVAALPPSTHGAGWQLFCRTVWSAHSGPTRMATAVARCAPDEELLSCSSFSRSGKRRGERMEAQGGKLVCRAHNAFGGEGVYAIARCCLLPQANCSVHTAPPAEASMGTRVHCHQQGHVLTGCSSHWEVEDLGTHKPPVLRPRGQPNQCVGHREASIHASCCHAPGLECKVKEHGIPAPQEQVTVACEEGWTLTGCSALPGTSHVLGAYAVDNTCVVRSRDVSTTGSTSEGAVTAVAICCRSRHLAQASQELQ
T1 sequence (Q8NBP7 31-152 partner limits assumed): as the sequence (Q8NBP7 31-152 partner limits assumed) above

Take `CC(=O)N[C@H](C(=O)N[C@H](C(=O)N[C@@H](Cc1ccccc1)C(=O)N[C@H](C(=O)N[C@@H](CO)C(=O)N[C@@H](Cc1c[nH]c2ccccc12)C(=O)N[C@@H](CCC(=O)O)C(=O)N[C@@H](CCC(=O)O)C(=O)N[C@@H](Cc1ccc(O)cc1)C(=O)N[C@@H](CC(C)C)C(=O)N[C@@H](CC(=O)O)C(=O)N[C@@H](Cc1c[nH]c2ccccc12)C(=O)N[C@H](C(=O)NCCCCCCCC(=O)N[C@@H](CCCCN)C(=O)N[C@@H](CC(C)C)C(=O)N[C@@H](Cc1c[nH]c2ccccc12)C(=O)N[C@@H](CC(N)=O)C(=O)N[C@@H](CC(C)C)C(=O)NCC(=O)N[C@@H](CCCNC(=N)N)C(=O)N[C@H](C(N)=O)C(C)C)C(C)C)[C@@H](C)O)C(C)C)[C@@H](C)O` [Compound 10]: the IC50 in assay [1] (Example 7) is 0.63 µM; in assay [2] (Example 7), 0.63 µM; in assay [3] (counterscreen, Example 7), > 50 µM.
As to `CC[C@H](C)[C@@H]1NC(=O)[C@H](CCCNC(=N)N)NC(=O)[C@H](CCC(N)=O)NC(=O)[C@H](C)NC(=O)[C@H](CC(N)=O)NC(=O)[C@H](Cc2c[nH]c3ccccc23)NC(=O)[C@@H]2CCCN2C(=O)[C@H](CC(C)C)NC(=O)[C@H](CCCNC(=N)N)NC(=O)[C@@H](NC(C)=O)CSSC[C@@H](C(N)=O)NC(=O)[C@@H]2CCCN2C(=O)[C@H](CC(C)C)NC(=O)CNC1=O` [Compound 74] (Ac-CRLPWNAQRIGLPC-NH2; disulfide 1-14), the IC50 was 49.5 µM in assay [1] (setting [4]), > 50 µM in assay [2] (setting [4]) and > 50 µM in assay [3] (setting [5]).
Consider `CCCCC(=O)N[C@@H](Cc1c[nH]c2ccccc12)C(=O)N[C@@H](CC(N)=O)C(=O)N[C@@H](CC(C)C)C(=O)N[C@H](C(=O)N[C@@H](CCCNC(=N)N)C(=O)N[C@H](C(=O)NCC(=O)N[C@H](C(=O)N[C@@H](CC(C)C)C(=O)N[C@@H](CCCNC(=N)N)C(N)=O)[C@@H](C)O)[C@@H](C)CC)C(C)C` [Compound 114] (Pentanoyl-WNLVRIGTLR-NH2), for which the IC50 in assay [1] (Example 7) was > 50 µM; in assay [2] (Example 7), > 50 µM; in assay [3] (counterscreen, Example 7) it was > 50 µM.
As for `CCCCC(=O)N[C@@H](Cc1c[nH]c2cc(C)ccc12)C(=O)N[C@@H](CC(N)=O)C(=O)N[C@@H](CC(C)C)C(=O)N[C@H](C(=O)N[C@@H](CCCNC(=N)N)C(=O)N[C@H](C(=O)NCC(=O)N[C@@H](CC(C)C)C(=O)N[C@H](C(=O)N[C@@H](CCCNC(=N)N)C(N)=O)[C@@H](C)O)[C@@H](C)CC)C(C)C` [Compound 175] (Pentanoyl-[Trp(6-Me)]NLVRIGLTR-NH2), the IC50 was 39 µM in assay [1] (Table 8E, additional compounds); ≥ 50 µM in assay [2] (Table 8E, additional compounds); ≥ 50 µM in assay [3] (setting [6]).
On to Ac-DAMPWNLVRIGLLR-NH2 [Compound 44], for which the IC50 is 6.9 µM in assay [1] (Example 7); > 50 µM in assay [2] (Example 7); > 50 µM in assay [3] (counterscreen, Example 7).
On to `CC[C@H](C)[C@@H]1NC(=O)[C@H](CCCNC(=N)N)NC(=O)[C@H](CCCCN)NC(=O)[C@H](CC(C)C)NC(=O)[C@H](CC(N)=O)NC(=O)[C@H](Cc2c[nH]c3ccccc23)NC(=O)[C@H](CC(C)C)NC(=O)[C@@H](NC(=O)CNC(C)=O)CSSC[C@@H](C(=O)N[C@@H](Cc2c[nH]c3ccccc23)C(=O)N[C@@H](Cc2ccccc2)C(N)=O)NC(=O)[C@H](CCC(N)=O)NC(=O)[C@H](CO)NC(=O)CNC1=O` [Compound 87] (Ac-GCLWNLKRIGSQCWF-NH2; disulfide 2-13 (inferred)), for which the IC50 in assay [1] (setting [4]) is 9.53 µM; in assay [2] (setting [4]) it was > 50 µM; in assay [3] (setting [5]) it was > 50 µM.
With `CC[C@H](C)[C@@H]1NC(=O)[C@H](CCCNC(=N)N)NC(=O)[C@H](CCC(N)=O)NC(=O)[C@@H](CC(C)C)NC(=O)[C@H](CC(N)=O)NC(=O)[C@H](Cc2c[nH]c3ccccc23)NC(=O)[C@@H]2CCCN2C(=O)[C@H](CC(C)C)NC(=O)[C@H](CCCNC(=N)N)NC(=O)[C@@H](NC(C)=O)CSSC[C@@H](C(N)=O)NC(=O)[C@@H]2CCCN2C(=O)[C@H](CC(C)C)NC(=O)CNC1=O` [Compound 104, Ac-CRLPWNlQRIGLPC-NH2] (Ac-CRLPWN[dL]QRIGLPC-NH2; disulfide 1-14), the IC50 in assay [1] (setting [4]), in assay [2] (setting [4]) and in assay [3] (setting [5]) was > 50 µM in each case.
For the molecule `CC[C@@H](C)[C@H]1NC(=O)[C@H](CCCNC(=N)N)NC(=O)[C@H](CCC(N)=O)NC(=O)[C@H](CC(C)C)NC(=O)[C@H](CC(N)=O)NC(=O)[C@H](Cc2c[nH]c3ccccc23)NC(=O)[C@@H]2CCCN2C(=O)[C@H](CC(C)C)NC(=O)[C@H](CCCNC(=N)N)NC(=O)[C@@H](NC(C)=O)CSSC[C@@H](C(N)=O)NC(=O)[C@@H]2CCCN2C(=O)[C@H](CC(C)C)NC(=O)CNC1=O` [Compound 101] (Ac-CRLPWNLQR[dI]GLPC-NH2; disulfide 1-14), the IC50 in assay [1] (setting [4]), in assay [2] (setting [4]) and in assay [3] (setting [5]) was > 50 µM in each case.
As to `CC[C@H](C)[C@@H]1NC(=O)[C@H](CCCNC(=N)N)NC(=O)[C@@H](CCC(N)=O)NC(=O)[C@H](CC(C)C)NC(=O)[C@H](CC(N)=O)NC(=O)[C@H](Cc2c[nH]c3ccccc23)NC(=O)[C@@H]2CCCN2C(=O)[C@H](CC(C)C)NC(=O)[C@H](CCCNC(=N)N)NC(=O)[C@@H](NC(C)=O)CSSC[C@@H](C(N)=O)NC(=O)[C@@H]2CCCN2C(=O)[C@H](CC(C)C)NC(=O)CNC1=O` [Compound 103, Ac-CRLPWNLqRIGLPC-NH2] (Ac-CRLPWNL[dQ]RIGLPC-NH2; disulfide 1-14), the IC50 in assay [1] (setting [4]), in assay [2] (setting [4]) and in assay [3] (setting [5]) was > 50 µM throughout.
For Ac-DLMPWNLKRIGLLR-NH2 [Compound 158], the IC50 in assay [1] (Table 8E, additional compounds) is 12 µM; in assay [2] (Table 8E, additional compounds), ≥ 50 µM; in assay [3] (setting [6]), ≥ 50 µM.
For the molecule “Ac-TVFTSWEEYLDWVGSGKLWN-NH2 [Compound 7]”, the IC50 was 18.6 µM in assay [1] (Example 7); 0.5 µM in assay [2] (Example 7); > 50 µM in assay [3] (counterscreen, Example 7).
As for `CC[C@H](C)[C@@H]1NC(=O)[C@H](CCCNC(=N)N)NC(=O)[C@H](CCCCN)NC(=O)[C@H](CC(C)C)NC(=O)[C@H](CC(N)=O)NC(=O)[C@H](Cc2c[nH]c3ccccc23)NC(=O)[C@@H](NC(=O)CNC(=O)CNC(=O)[C@H](CO)NC(=O)CNC(=O)[C@@H](NC(=O)[C@H](Cc2c[nH]c3ccccc23)NC(=O)[C@H](CC(=O)O)NC(=O)[C@H](CC(C)C)NC(=O)[C@H](Cc2ccc(O)cc2)NC(=O)[C@H](CCC(=O)O)NC(=O)[C@H](CCC(=O)O)NC(=O)[C@H](Cc2c[nH]c3ccccc23)NC(=O)[C@H](CO)NC(=O)[C@@H](NC(=O)[C@H](Cc2ccccc2)NC(=O)[C@@H](NC(=O)[C@@H](NC(C)=O)[C@@H](C)O)C(C)C)[C@@H](C)O)C(C)C)CSSC[C@@H](C(N)=O)NC(=O)CNC(=O)[C@H](CCC(N)=O)NC(=O)[C@H](CO)NC(=O)CNC1=O` [Compound 14] (Ac-TVFTSWEEYLDWVGSGGCWNLKRIGSQGC-NH2; disulfide 18-29), the “inhibition in the PCSK9Δhelix/Ab20 binding assay” value in assay [1] was “potent inhibitors”. In addition, the IC50 in assay [1] (Example 7) was 0.001 µM; in assay [2] (Example 7) it was 0.009 µM; in assay [3] (counterscreen, Example 7) it was > 50 µM. In addition, the “inhibition in the PCSK9/EGF(A) binding assay” value in assay [2] was “potent inhibitors”.
In the case of `CC[C@H](C)[C@H](NC(=O)[C@H](CCCCNC(=N)N)NC(=O)[C@H](CCCCN)NC(=O)[C@H](CC(C)C)NC(=O)[C@H](CC(N)=O)NC(=O)[C@H](Cc1c[nH]c2ccccc12)NC(=O)CNC(=O)[C@@H]1CCCN1C(=O)[C@H](Cc1ccccc1)NC(=O)[C@H](C)NC(=O)[C@H](Cc1ccccc1)NC(=O)[C@H](CO)NC(C)=O)C(=O)NCC(=O)N[C@@H](CC(C)C)C(=O)N[C@@H](CC(C)C)C(=O)N[C@@H](CCCNC(=N)N)C(N)=O` [Compound 232] (Ac-SFAFPGWNLK[hArg]IGLLR-NH2), the IC50 was 13 µM in assay [1] (Table 8E, additional compounds); 0.93 µM in assay [2] (Table 8E, additional compounds); ≥ 50 µM in assay [3] (setting [6]).
